A value given as a limit tells only on which side of the number the result lay.

The subject of test [1] is TGF-β-stimulated SMAD3 phosphorylation in BEAS-2B cells. The test can be described thus: Cellular ALK5 potency assay, inhibition of TGF-β stimulated pSMAD3 formation in BEAS-2B cells. Type of test: cell-based. As to conditions: Homo sapiens; inhibition of TGF-β stimulated pSMAD3 formation, BEAS-2B cells; read-out: BEAS2B pIC50 (converted). The method, boiled down: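 pSMAD3 was quantified by AlphaLISA in BEAS-2B lysates after 10 ng/mL TGF-β (final) for 30 min. Before stimulation, cells received compound for 1 h at 37° C in supplemented HBSS. Values are pIC50, relative to TGF-β-stimulated cells without compound.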

Test [2] addresses T1, recombinant human ALK5 (TGF-βR1) protein (Homo sapiens, UniProt P36897).
T1 construct: purchased Life Technologies PR9075A
T1 sequence (P36897 34-503): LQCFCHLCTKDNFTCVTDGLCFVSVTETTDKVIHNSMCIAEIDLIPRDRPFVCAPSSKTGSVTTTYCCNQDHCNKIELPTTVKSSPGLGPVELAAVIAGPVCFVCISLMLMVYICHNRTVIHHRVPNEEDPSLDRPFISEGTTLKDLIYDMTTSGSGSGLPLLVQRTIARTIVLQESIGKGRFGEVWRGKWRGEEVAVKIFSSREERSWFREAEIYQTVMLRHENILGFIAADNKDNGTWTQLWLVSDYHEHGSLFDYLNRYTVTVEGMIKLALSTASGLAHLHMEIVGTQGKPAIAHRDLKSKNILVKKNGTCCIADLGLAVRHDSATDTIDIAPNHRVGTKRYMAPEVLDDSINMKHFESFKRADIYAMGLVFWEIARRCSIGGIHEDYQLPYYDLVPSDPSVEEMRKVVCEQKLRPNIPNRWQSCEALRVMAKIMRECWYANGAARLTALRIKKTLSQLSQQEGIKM
The test can be described thus: Biochemical ALK5 (TGF-βR1) assay to measure pKi (LANCE Ultra ULight kinase assay). Conditions: apparent pKi from pIC50 by Cheng-Prusoff, read-out: ALK5 pKi (converted). In outline:
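Dose range 10 μM–25 pM; enzyme + compound 60 min RT; ATP added (5× stock 125 μM, 2 mM DTT); 60 min 37 °C; stop with EDTA + Eu anti-phospho-Topo IIα Thr1342 Ab; TR-FRET ex 320/340, em 665 nm. 4-param pIC50 → pKi (Cheng-Prusoff).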
A general note: In TR-FRET formats the signal depends on donor and acceptor labels being close together.

As to `Cc1cccc(-c2n[nH]cc2-c2ccc3ncc(-c4c(C)noc4C)cc3n2)n1` [Compound 243, 3,5-dimethyl-4-[6-[3-(6-methyl-2-pyridyl)-1H-pyrazol-4-yl]-1,5-naphthyridin-3-yl]isoxazole], the IC50 in test [1] was 25.1 to 158 nM. In addition, the Ki in test [2] was 0.398 to 3.16 nM.

Consider `Cc1cccc(-c2[nH]cnc2-c2ccc3ncc(C4=CCNCC4)cc3c2)n1` [Compound 472, 6-[5-(6-methyl-2-pyridyl)-1H-imidazol-4-yl]-3-(1,2,3,6-tetrahydropyridin-4-yl)quinoline], for which the IC50 in test [1] is under 20 nM. Further, in test [2], the Ki is under 0.0316 nM.

For the molecule `CNCCn1cc(-c2cnc3ccc(-c4c[nH]nc4-c4cccc(C(F)(F)F)n4)nc3c2)cn1` [Compound 237, N-methyl-2-(4-(6-(3-(6-(trifluoromethyl)pyridin-2-yl)-1H-pyrazol-4-yl)-1,5-naphthyridin-3-yl)-1H-pyrazol-1-yl)ethan-1-amine], in test [1], the IC50 was 25.1 to 158 nM. In addition, the Ki in test [2] was under 0.0316 nM.

As to `Cc1cccc(-c2n[nH]cc2-c2ccc3ncc(-c4ccn(C)n4)cc3n2)n1` [Compound 692, 7-(1-methylpyrazol-3-yl)-2-[3-(6-methyl-2-pyridyl)-1H-pyrazol-4-yl]-1,5-naphthyridine], in test [1], the IC50 was under 20 nM. Also, the Ki in test [2] was under 0.0316 nM.

As to `CNCCn1cc(-c2cnc3ccc(-c4nc[nH]c4-c4ccc(F)c(C)n4)nc3c2)cn1` [Compound 559, 2-[4-[6-[5-(5-fluoro-6-methyl-2-pyridyl)-1H-imidazol-4-yl]-1,5-naphthyridin-3-yl]pyrazol-1-yl]-N-methyl-ethanamine], the IC50 in test [1] was 25.1 to 158 nM. Further, the Ki in test [2] was 0.0398 to 0.316 nM.

In the case of `Cc1cccc(-c2nnn(Cc3ccccc3)c2-c2ccc3ncc(-c4cnn(C5CCCNC5)c4)cc3n2)n1` (stereo not shown) [Compound 216, 2-(1-benzyl-4-(6-methylpyridin-2-yl)-1H-1,2,3-triazol-5-yl)-7-(1-(piperidin-3-yl)-1H-pyrazol-4-yl)-1,5-naphthyridine], the IC50 in test [1] was 25.1 to 158 nM. In test [2], the Ki is 0.0398 to 0.316 nM.

On to `CC(=O)Oc1cnc2ccc(-c3cn[nH]c3-c3cccc(C)n3)cc2c1` [Compound 731, [6-[5-(6-methyl-2-pyridyl)-1H-pyrazol-4-yl]-3-quinolyl]acetate], for which the IC50 in test [1] is under 20 nM. Besides, in test [2], the Ki was 0.0398 to 0.316 nM.

As to `Cc1cccc(-c2n[nH]cc2-c2ccc3ncc(-c4c(C)n[nH]c4C)cc3n2)n1` [Compound 366, 7-(3,5-dimethyl-1H-pyrazol-4-yl)-2-[3-(6-methyl-2-pyridyl)-1H-pyrazol-4-yl]-1,5-naphthyridine], the IC50 in test [1] was 200 to 1260 nM. The Ki in test [2] is 0.0398 to 0.316 nM.

As to `Cc1cccc(-c2n[nH]cc2-c2ccc3nccc(N(C)CC(=O)N4CCOCC4)c3n2)n1` [Compound 836, 2-[methyl-[6-[3-(6-methyl-2-pyridyl)-1H-pyrazol-4-yl]-1,5-naphthyridin-4-yl]amino]-1-morpholino-ethanone], the IC50 in test [1] was 200 to 1260 nM. For the same molecule, the Ki in test [2] was 3.98 to 31.6 nM.

As to `Cc1cccc(-c2[nH]cnc2-c2ccc3ncc(-c4csc(C(=O)OCCN5CCNCC5)n4)cc3c2)n1` [Compound 1096, 2-piperazin-1-ylethyl 4-[6-[5-(6-methyl-2-pyridyl)-1H-imidazol-4-yl]-3-quinolyl]thiazole-2-carboxylate], the IC50 in test [1] is 25.1 to 158 nM. Besides, the Ki in test [2] was 0.0398 to 0.316 nM.

Consider `Cc1cccc(-c2n[nH]cc2-c2ccc3ncc(N4CCN(CC(F)(F)F)CC4)cc3n2)n1` [Compound 266, 2-[3-(6-methyl-2-pyridyl)-1H-pyrazol-4-yl]-7-[4-(2,2,2-trifluoroethyl)piperazin-1-yl]-1,5-naphthyridine], for which, in test [1], the IC50 was 25.1 to 158 nM. For the same molecule, the Ki in test [2] was 0.0398 to 0.316 nM.

Regarding `Cc1cccc(-c2n[nH]cc2-c2ccc3ncc(-c4cn5c(n4)CNCC5)cc3n2)n1` [Compound 75, 2-(3-(6-Methylpyridin-2-yl)-1H-pyrazol-4-yl)-7-(5,6,7,8-tetrahydroimidazo[1,2-a]pyrazin-2-yl)-1,5-naphthyridine], the IC50 in test [1] was 25.1 to 158 nM. The Ki in test [2] is under 0.0316 nM.

For the molecule `Cc1cccc(-c2[nH]cnc2-c2ccc3ncc(-c4ccc(C(=O)O[C@H]5CCN(C)C5)s4)cc3c2)n1` [Compound 1008, (S)-1-methylpyrrolidin-3-yl 5-(6-(5-(6-methylpyridin-2-yl)-1H-imidazol-4-yl)quinolin-3-yl)thiophene-2-carboxylate], the IC50 in test [1] was 25.1 to 158 nM. The Ki in test [2] was 0.0398 to 0.316 nM.

For the molecule `Cc1cccc(-c2[nH]cnc2-c2ccc3ncc(-c4csc(C(=O)OCCC5CNC5)c4)cc3c2)n1` [Compound 1169, 2-(azetidin-3-yl)ethyl 4-[6-[5-(6-methyl-2-pyridyl)-1H-imidazol-4-yl]-3-quinolyl]thiophene-2-carboxylate], the IC50 in test [1] is 25.1 to 158 nM. In addition, the Ki in test [2] is under 0.0316 nM.

Take `Cc1cccc(-c2nc3sccn3c2-c2ccc3ncc(Br)cc3n2)n1` [Compound 511, 5-(7-Bromo-1,5-naphthyridin-2-yl)-6-(6-methylpyridin-2-yl)imidazo[2,1-b]thiazole]: in test [1], the IC50 was 25.1 to 158 nM. The Ki in test [2] was 0.398 to 3.16 nM.

For the molecule `Cc1cccc(-c2n[nH]cc2-c2ccc3ncc(-c4ccc(C)nc4C)cc3n2)n1` [Compound 436, 7-(2,6-dimethyl-3-pyridyl)-2-[3-(6-methyl-2-pyridyl)-1H-pyrazol-4-yl]-1,5-naphthyridine], the IC50 in test [1] was 25.1 to 158 nM. The Ki in test [2] is 0.0398 to 0.316 nM.

Turning to `Cc1cccc(-c2[nH]cnc2-c2ccc3ncc(-c4ccc(C(=O)O[C@H]5CCN(C)C5)cc4)cc3c2)n1` [Compound 545, [(3S)-1-methylpyrrolidin-3-yl] 4-[6-[5-(6-methyl-2-pyridyl)-1H-imidazol-4-yl]-3-quinolyl]benzoate], in test [1], the IC50 was 25.1 to 158 nM. In test [2], the Ki was 0.0398 to 0.316 nM.

For `COc1[nH]nc(-c2cccc(C)n2)c1-c1ccc2ncc(NCCN3CCOCC3)cc2n1` [Compound 87, 6-[5-methoxy-3-(6-methyl-2-pyridyl)-1H-pyrazol-4-yl]-N-(2-morpholinoethyl)-1,5-naphthyridin-3-amine], the IC50 in test [1] is 200 to 1260 nM. The Ki in test [2] was 0.398 to 3.16 nM.

In the case of `Cc1cccc(-c2[nH]cnc2-c2ccc3ncc(C(=O)OCCN4CCN5CCCC5C4)cc3c2)n1` (stereo not shown) [Compound 1067, 2-(3,4,6,7,8,8a-hexahydro-1H-pyrrolo[1,2-a]pyrazin-2-yl)ethyl 6-[5-(6-methyl-2-pyridyl)-1H-imidazol-4-yl]quinoline-3-carboxylate], the IC50 in test [1] is 25.1 to 158 nM. Besides, in test [2], the Ki was 0.0398 to 0.316 nM.

With `Cc1cccc(-c2n[nH]cc2-c2ccc3ncc(N4CCC(N)CC4)cc3n2)n1` [Compound 316, 1-[6-[3-(6-methyl-2-pyridyl)-1H-pyrazol-4-yl]-1,5-naphthyridin-3-yl]piperidin-4-amine], the IC50 in test [1] was 25.1 to 158 nM. Besides, the Ki in test [2] is under 0.0316 nM.

As to `Cc1cccc(-c2[nH]cnc2-c2ccc3ncc(N4CCNC(CC(=O)OC(C)C)C4)cc3c2)n1` (stereo not shown) [Compound 24, isopropyl 2-[4-[6-[5-(6-methyl-2-pyridyl)-1H-imidazol-4-yl]-3-quinolyl]piperazin-2-yl]acetate], the IC50 in test [1] is 25.1 to 158 nM. Also, in test [2], the Ki is 0.0398 to 0.316 nM.

As to `CNC1CCN(c2cnc3ccc(-c4c[nH]nc4-c4ccc(F)c(C)n4)nc3c2)CC1` [Compound 264, 1-[6-[3-(5-fluoro-6-methyl-2-pyridyl)-1H-pyrazol-4-yl]-1,5-naphthyridin-3-yl]-N-methyl-piperidin-4-amine], in test [1], the IC50 is 25.1 to 158 nM. Besides, the Ki in test [2] was under 0.0316 nM.

Consider `Cc1cccc(-c2[nH]cnc2-c2ccc3ncc(-c4cccc(NC5CCNCC5)c4)cc3c2)n1` [Compound 686, N-[3-[6-[5-(6-methyl-2-pyridyl)-1H-imidazol-4-yl]-3-quinolyl]phenyl]piperidin-4-amine], for which the IC50 in test [1] is 25.1 to 158 nM. The Ki in test [2] is under 0.0316 nM.

`Cc1cccc(-c2[nH]cnc2-c2ccc3ncc(C(=O)O)cc3c2)n1` [Compound 796, 6-[5-(6-methyl-2-pyridyl)-1H-imidazol-4-yl]quinoline-3-carboxylic Acid]: in test [1], the IC50 was 1580 to 10000 nM. Besides, the Ki in test [2] is 3.98 to 31.6 nM.

`Cc1cccc(-c2n[nH]cc2-c2ccc3ncc(-c4ccc(C5CCCN(C(C)C)C5)cc4)cc3n2)n1` (stereo not shown) [Compound 265, 7-[4-(1-isopropyl-3-piperidyl)phenyl]-2-[3-(6-methyl-2-pyridyl)-1H-pyrazol-4-yl]-1,5-naphthyridine]: the IC50 in test [1] was 200 to 1260 nM. Further, the Ki in test [2] is 0.0398 to 0.316 nM.

Consider `Cc1cccc(-c2[nH]cnc2-c2ccc3ncc(C(=O)OCCN4CC5(CCNCC5)C4)cc3c2)n1` [Compound 891, 2-(2,7-diazaspiro[3.5]nonan-2-yl)ethyl 6-(5-(6-methylpyridin-2-yl)-1H-imidazol-4-yl)quinoline-3-carboxylate], for which, in test [1], the IC50 is 200 to 1260 nM. Moreover, the Ki in test [2] was 0.0398 to 0.316 nM.
